{"source": "patent US20240180900A1", "about": "“COMPOUNDS AND METHODS FOR THE TARGETED DEGRADATION OF ANDROGEN RECEPTOR” (Arvinas Operations, Inc., priority 2022, published 2024)", "key": {"[1]": {"target": "T1, AR F877L/T878A (Homo sapiens, UniProt P10275, F877L/T878A)", "T1 construct": "expressed in transfected cells; host or cells: T-REx-293", "T1 sequence (P10275 whole entry F877L/T878A)": "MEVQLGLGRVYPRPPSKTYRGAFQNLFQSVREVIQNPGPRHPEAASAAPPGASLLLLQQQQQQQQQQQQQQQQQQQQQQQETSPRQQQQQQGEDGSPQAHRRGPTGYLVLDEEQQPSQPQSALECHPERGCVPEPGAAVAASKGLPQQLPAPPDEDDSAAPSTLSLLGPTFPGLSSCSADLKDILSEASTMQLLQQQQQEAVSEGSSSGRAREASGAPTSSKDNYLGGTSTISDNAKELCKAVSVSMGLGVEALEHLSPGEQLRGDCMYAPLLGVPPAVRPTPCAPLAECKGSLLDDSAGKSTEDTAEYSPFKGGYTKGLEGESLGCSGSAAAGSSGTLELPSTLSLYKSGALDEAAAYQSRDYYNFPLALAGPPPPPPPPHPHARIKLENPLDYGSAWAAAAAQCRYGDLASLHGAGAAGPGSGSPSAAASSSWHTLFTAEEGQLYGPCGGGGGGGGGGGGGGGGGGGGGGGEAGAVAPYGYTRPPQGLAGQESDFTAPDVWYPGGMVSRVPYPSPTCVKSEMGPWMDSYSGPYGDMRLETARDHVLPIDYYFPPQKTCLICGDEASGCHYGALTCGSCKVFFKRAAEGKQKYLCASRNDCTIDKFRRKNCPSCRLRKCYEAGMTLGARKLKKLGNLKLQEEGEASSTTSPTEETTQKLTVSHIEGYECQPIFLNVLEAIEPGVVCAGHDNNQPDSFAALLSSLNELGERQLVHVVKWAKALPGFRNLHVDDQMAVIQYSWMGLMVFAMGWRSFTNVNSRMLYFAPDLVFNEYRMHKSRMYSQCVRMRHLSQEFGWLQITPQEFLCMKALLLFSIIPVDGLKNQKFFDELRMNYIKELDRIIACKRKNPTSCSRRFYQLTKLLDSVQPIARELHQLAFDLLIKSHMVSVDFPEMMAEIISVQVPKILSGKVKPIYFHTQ", "experiment": "AR degradation in T-Rex-293 cell line, F877L/T878A", "type": "cell-based", "conditions": "T-Rex-293, ELISA", "text": "(§1) FIG. 3 is a graph showing Compound A's ability to degrade clinically relevant mutated forms AR.\n(§2) To assess the ability of Compound A to degrade variants of the AR, vectors expressing wild-type AR or mutant AR proteins harboring clinically observed mutations in the ligand binding domain (13 with single amino acid changes or 4 with 2 amino acid changes) (Azad A. A., Volik S. V., Wyatt A. W., et al. Androgen receptor gene aberrations in circulating cell-free DNA: biomarkers of therapeutic resistance in castration-resistant prostate cancer. Clin Cancer Res. 2015; 21:2315-2324; Robinson D., Van Allen E. M., Wu Y. M., et al. Integrative clinical genomics of advanced prostate cancer. Cell. 2015; 161:1215-1228; Ledet E. M., Lilly M. B., Sonpavde G., et al. Comprehensive analysis of AR alterations in circulating tumor DNA from patients with advanced prostate cancer. Oncologist."}, "[2]": {"test_system": "VCaP cells", "experiment": "VCaP cell proliferation in a high androgen environment (R1881)", "type": "cell-based, human", "conditions": "Compound A 300 nM vs enzalutamide 1,000 nM, R1881 0.01 to 1 nM, 5 days", "description": "Cell proliferation was determined using the CellTiter Glo® assay."}, "[3]": {"target": "T2, AR (Homo sapiens, UniProt P10275)", "T2 sequence (P10275 1-920)": "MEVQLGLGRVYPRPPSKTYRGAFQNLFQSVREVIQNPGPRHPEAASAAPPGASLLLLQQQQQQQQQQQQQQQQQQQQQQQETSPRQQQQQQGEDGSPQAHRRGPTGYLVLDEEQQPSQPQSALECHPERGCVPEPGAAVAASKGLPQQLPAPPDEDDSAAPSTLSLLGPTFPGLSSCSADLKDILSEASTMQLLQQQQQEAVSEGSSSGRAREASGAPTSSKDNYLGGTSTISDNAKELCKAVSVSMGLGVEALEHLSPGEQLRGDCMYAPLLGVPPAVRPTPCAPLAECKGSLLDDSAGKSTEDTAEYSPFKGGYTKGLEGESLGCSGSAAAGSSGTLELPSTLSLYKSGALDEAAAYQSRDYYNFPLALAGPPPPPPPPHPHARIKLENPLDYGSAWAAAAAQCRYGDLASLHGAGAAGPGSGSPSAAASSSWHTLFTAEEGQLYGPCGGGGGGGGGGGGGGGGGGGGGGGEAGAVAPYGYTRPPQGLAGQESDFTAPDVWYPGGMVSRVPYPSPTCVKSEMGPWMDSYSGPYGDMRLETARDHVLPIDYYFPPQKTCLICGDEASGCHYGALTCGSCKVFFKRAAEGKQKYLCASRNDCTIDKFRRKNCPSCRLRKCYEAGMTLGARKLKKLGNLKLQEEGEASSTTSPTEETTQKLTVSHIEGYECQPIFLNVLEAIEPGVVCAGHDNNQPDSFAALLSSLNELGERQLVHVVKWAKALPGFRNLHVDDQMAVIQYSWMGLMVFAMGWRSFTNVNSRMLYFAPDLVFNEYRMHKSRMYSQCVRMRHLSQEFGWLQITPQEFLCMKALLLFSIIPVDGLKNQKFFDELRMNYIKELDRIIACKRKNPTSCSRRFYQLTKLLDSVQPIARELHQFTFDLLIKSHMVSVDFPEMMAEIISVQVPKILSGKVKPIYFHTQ", "experiment": "poly-ubiquitination assay", "type": "cell-based", "conditions": "with Compound A treatment"}, "[4]": {"test_system": "PSA", "experiment": "Phase 1/2 trial in mCRPC: PSA response", "type": "in vivo, human", "description": "Evaluable analysis set include all Compound A treated participants with baseline PSA assessment and at least a C1D28 or later postbaseline PSA assessment. A PSA90 and PSA50 and PSA30 response is defined as a =90% or 50% or 30% decline in PSA from baseline PSA value, respectively.\nPatients in the Phase 1 studies were administered from 40 mg to 500 mg Compound A once daily. Patients in the Phase 2 studies were administered 100 mg or 300 mg Compound A once daily.\nIn the Phase 1 and interim Phase 2 trial, AR LBD mutations were present in 28% (13 of 47) of patients' tumors. […] (FIG. 7; AR: androgen receptor; LBD: ligand-binding domain; PSA: prostate-specific antigen; PSA30: best PSA declines ≥30%; PSA50: best PSA declines ≥50%; H875: H875Y; T878: T878A or T878S.)\nEvaluable analysis set include all Compound A treated participants with baseline PSA assessment and at least a C1D28 or later postbaseline PSA assessment. A PSA90 and PSA50 and PSA30 response is defined as =90% or 50% or 30% decline in PSA from baseline PSA value."}, "[5]": {"target": "T3, AR (VCaP cells, AR amplification) (Homo sapiens, UniProt P10275)", "T3 construct": "endogenous in cells; host or cells: VCaP", "T3 sequence (P10275 1-920)": "T2 sequence (P10275 1-920)", "experiment": "AR degradation assay and time course in VCaP cells", "type": "cell-based", "description": "FIG. 2 is an analysis of Compound A in in vitro AR degradation assays conducted in VCaP cells and LNCaP cancer cells that harbor AR amplification and the AR mutation (T878A) mutation, respectively.\nTo determine the pharmacological effect of Compound A in vitro, AR degradation assays were conducted in VCaP (vertebral-cancer of the prostate) cancer cells and LNCaP (lymph node carcinoma of the prostate) cancer cells that harbor AR amplification and the AR mutation (T878A) mutation, respectively.\nTo determine the pharmacological effect of Compound A in vitro, AR degradation assays were conducted in VCaP cells and LNCaP prostate cancer cells that harbor AR amplification and the AR mutation (T878A) mutation, respectively."}, "[6]": {"test_system": "receptors, ion channels, transporters, and enzymes", "experiment": "selectivity screening panel of 44 targets: other targets", "type": "binding", "conditions": "1 μM; interaction = effect greater than 50% of positive control", "description": "Compound A was tested at 1 μM in a screening study to assess the interaction of Compound A with a panel of 44 targets, including receptors, ion channels, transporters, and enzymes. Any effect greater than 50% of the positive control for a target was considered to represent an interaction of the test compound with the target."}, "[7]": {"target": "T4, AR W742C (Homo sapiens, UniProt P10275, W742C)", "T4 construct": "expressed in transfected cells; host or cells: T-REx-293", "T4 sequence (P10275 whole entry W742C)": "as the sequence (P10275 whole entry F877L/T878A) above, with W742C, L877F, A878T counted along it", "experiment": "AR degradation in T-Rex-293 cell line, W742C", "type": "cell-based", "conditions": "T-Rex-293, ELISA", "text": "as §1, §2"}}, "data": [{"smiles": "COc1cc(O[C@H]2C(C)(C)[C@H](NC(=O)c3ccc(N4CCC(CN5CCN(c6ccc(C(=O)N[C@H]7CCC(=O)NC7=O)c(F)c6)CC5)CC4)cc3)C2(C)C)ccc1C#N", "note": "[Compound A, 4-(4-((1-(4-(((1R,3R)-3-(4-cyano-3-methoxyphenoxy)-2,2,4,4-tetramethylcyclobutyl)carbamoyl)phenyl)piperidin-4-yl)methyl)piperazin-1-yl)-N—((S)-2,6-dioxopiperidin-3-yl)-2-fluorobenzamide]", "values": [{"measurement": "DC50", "setting": "[1]", "result": 7, "unit": "nM"}, {"measurement": "antiproliferative effects vs enzalutamide", "setting": "[2]", "result": "more potent antiproliferative effects than enzalutamide"}, {"measurement": "ubiquitination of the AR", "setting": "[3]", "result": "significantly increased"}, {"measurement": "PSA decline in patient with mCRPC with wild-type AR", "setting": "[4]; FIG. 14", "result": "Deep PSA decline"}, {"measurement": "patients with AR LBD mutations achieving PSA50", "setting": "[4]; Phase 1 and interim Phase 2", "result": 42, "unit": "%"}, {"measurement": "patients with AR LBD mutations achieving PSA50", "setting": "[4]; as the trial progressed, 7 of 17", "result": 41, "unit": "%"}, {"measurement": "DC50", "setting": "[5]; 24 hours of treatment", "result": "< 1", "unit": "nM"}, {"measurement": "Dmax", "setting": "[5]; 24 hours of treatment", "result": "≥ 94", "unit": "%"}, {"measurement": "elimination of AR from the cell (time course)", "setting": "[5]; by 6 hours", "result": "near complete elimination of AR"}, {"measurement": "degradation of AR (time course)", "setting": "[5]; within 2 hours of treatment", "result": "> 50", "unit": "%"}, {"measurement": "interaction with any other target of the panel of 44 targets", "setting": "[6]", "result": "No interaction with any other target was identified"}, {"measurement": "DC50", "setting": "[7]", "result": 2.7, "unit": "nM"}]}]}
